Test results taken from PubChem BioAssay AID1996.
Values after ≈ are worked out from the molar mass of the structure shown.

Conditions: buffer; pH 7.4; 200.0 µM

SMILES	solubility kinetic
Cc1ccc(C)c(NC(=O)CCN2CCCC(C)C2)c1 (centres undefined)	38.5 µg/mL (≈ 140 µM)
COc1ccc(N2Cc3ccc(OC)c(OC)c3C2=O)cc1	> 44.9 µg/mL
CCN1CCN(C/C(C)=C/c2ccccc2)CC1	27.2 µg/mL (≈ 111 µM)
Cc1cc(C)c(C(=O)Nc2ccccc2)c(CC(C)(C)C(=O)O)c1	> 48.8 µg/mL
CC(=O)c1ccc(S(=O)(=O)N2CCC(C(=O)Nc3ncc(C)s3)CC2)cc1	3 µg/mL (≈ 7.36 µM)
Cc1ccc(NC(=O)CCCc2ccccc2)nc1	36.6 µg/mL (≈ 144 µM)
COc1ccc(OC)c(NC(=O)NCCc2cccc(Cl)c2)c1	1.9 µg/mL (≈ 5.67 µM)
CC(=O)NCCc1nc2ccccc2n1CCOc1ccccc1	> 48.5 µg/mL
COc1ccc(C(=O)N2CCn3c2nc2ccccc23)cc1	6.7 µg/mL (≈ 22.8 µM)
O=C(c1cc(-c2ccc(Cl)cc2)on1)N1CCCC1	1.4 µg/mL (≈ 5.06 µM)
O=C(Oc1ccc(Br)cc1)c1cccnc1	34.3 µg/mL (≈ 123 µM)
CC1CCC(NC(=O)CN2C(=O)C3CC=CCC3C2=O)CC1 (centres undefined)	> 45.7 µg/mL
COC(=O)Cn1c2ccc(OC)cc2c2nc(C)sc21	> 43.6 µg/mL
CCOc1cc(CC(=O)N[C@@H](CC(C)C)c2ccccc2N2CCCCC2)ccc1C(=O)O	> 67.9 µg/mL
Cc1ccc(Cc2nc3ccccc3[nH]2)cc1	31.8 µg/mL (≈ 143 µM)
CC(=O)NCCc1nc2ccccc2n1CCOc1cccc(C)c1	> 50.6 µg/mL
CCCN1CCN(C(=O)CCCNC(=O)c2ccc(Cl)cc2)CC1	> 52.8 µg/mL
Cc1cccc(C)c1NC(=O)c1ccc(N2CCCC2=O)cc1	> 46.3 µg/mL
NC(CO)(CO)CO.O=C(c1ccccc1)c1ccc2n1CCC2C(=O)O (centres undefined)	> 56.5 µg/mL
Cc1ccc(NS(=O)(=O)c2ccc(C(=O)NCc3ccccn3)cc2)cc1	53.8 µg/mL (≈ 141 µM)
COc1ccc(O)c(CN2CCN(CCc3ccccc3)C(CCO)C2)c1 (centres undefined)	54 µg/mL (≈ 146 µM)
COCC(=O)NC1CC(C)(C)Cc2c1cnn2-c1ccc(F)cc1 (centres undefined)	> 49.7 µg/mL
C=CCn1c(O)c(C(C)=NCCCn2ccnc2)c(=O)[nH]c1=O	> 47.6 µg/mL
COc1ccc(C(=O)Nc2ccc(Cl)c(S(=O)(=O)N3CCOCC3)c2)cc1	2.9 µg/mL (≈ 7.06 µM)

SMILES	solubility kinetic
CC(=O)Nc1ccc(N2C(=O)C3C4C=CC(CC4)C3C2=O)cc1 (centres undefined)	> 46.6 µg/mL
CS(=O)(=O)N(CC(=O)O)c1ccc(C23CC4CC(CC(C4)C2)C3)cc1	49.5 µg/mL (≈ 136 µM)
CC1Cc2ccccc2N1C(=O)CSc1ncccn1 (centres undefined)	> 42.8 µg/mL
O=C(Nc1ccccc1[N+](=O)[O-])C1(c2ccccc2)CCOCC1	42.3 µg/mL (≈ 130 µM)
NC(=O)C1CCN(C(=O)CCC(=O)c2ccc(F)cc2)CC1	> 46 µg/mL
O=C(Nc1ccc([N+](=O)[O-])cc1)OCCc1ccccn1	0.6 µg/mL (≈ 2.09 µM)
CC1(c2ccc(Cl)cc2)NC(=O)N(CC(=O)NC2CCCCC2)C1=O (centres undefined)	> 54.6 µg/mL
CCOC(=O)c1csc(NC(=O)C2=COCCO2)n1	> 42.6 µg/mL
Cc1nn(-c2ccccc2)c(C)c1CN	> 30.2 µg/mL
C=CCNc1nc2ccccc2nc1NS(=O)(=O)c1ccc(OC)cc1	45.9 µg/mL (≈ 124 µM)
COc1ccc(CCN2CC(C(=O)Nc3nccs3)CC2=O)cc1OC (centres undefined)	> 56.3 µg/mL
O=C(O)CC(CC(=O)Nc1ccc2ccccc2n1)c1ccccc1 (centres undefined)	> 50.2 µg/mL
C=CCN1C(=O)N(CC=C)c2cccc3cccc1c23	0.4 µg/mL (≈ 1.51 µM)
O=C(Nc1cccc(F)c1)Nc1c[nH]c(=O)[nH]c1=O	2.4 µg/mL (≈ 9.08 µM)
Cc1ccc(CNCCNCCO)s1.Cl	> 43.1 µg/mL
CC(C)c1ccc(CN2C(=O)NC3(CCCCCC3)C2=O)cc1	< 0.3 µg/mL
Clc1ccc(OCCCCCN2CCOCC2)cc1	26.6 µg/mL (≈ 93.7 µM)
O=[N+]([O-])c1ccc(CN2CCN(c3ccc(F)cc3)CC2)o1	15 µg/mL (≈ 49.1 µM)
CCS(=O)CC(=O)Nc1c(-c2ccccc2)oc2ccccc2c1=O (centres undefined)	44.8 µg/mL (≈ 126 µM)
Cc1cc(-c2ccccc2C(=O)Nc2ccccc2O)on1	> 44.1 µg/mL
Cc1cccc(NC(=S)NC(=O)c2oc3ccccc3c2C)n1	< 0.2 µg/mL
C=CCSc1nc2sc3c(c2c(=O)n1CC)CCc1ccccc1-3	> 53.2 µg/mL
CC1(c2ccc3ccccc3c2)NC(=O)NC1=O (centres undefined)	29.3 µg/mL (≈ 122 µM)
O=C(COC(=O)c1cnccn1)NCc1ccc(Cl)cc1	> 45.9 µg/mL

SMILES	solubility kinetic
COC(=O)C1CN(C(=O)C(C)Oc2ccccc2F)c2ccccc2O1 (centres undefined)	> 53.9 µg/mL
O=C(CCNC(=O)c1ccccc1)Nc1nc2ccccc2s1	4.9 µg/mL (≈ 15.1 µM)
CCOCc1c(C(=O)NC2CCCCCC2)oc2ccccc12	0.9 µg/mL (≈ 2.85 µM)
CN(Cc1ccccc1)c1ncnc2sccc12	32.4 µg/mL (≈ 127 µM)
O=C(NC1CCN(Cc2ccccc2)CC1)c1ccccc1	> 44.2 µg/mL
O=C(O)C1CCN(c2ccccc2[N+](=O)[O-])CC1	> 37.5 µg/mL
Cc1ccc2[nH]c(C(F)(F)F)cc(=O)c2c1	33.5 µg/mL (≈ 147 µM)
N#Cc1ccsc1NC(=O)c1ccc(Cl)c([N+](=O)[O-])c1	2.9 µg/mL (≈ 9.42 µM)
O=C1CC(NCc2ccc(F)cc2)C(=O)N1c1ccccc1 (centres undefined)	43.6 µg/mL (≈ 146 µM)
CCNC(=O)c1cc(S(=O)(=O)N2CCSCC2)ccc1OC	45.1 µg/mL (≈ 131 µM)
Cc1cc(NC(=O)c2cccc([N+](=O)[O-])c2)no1	< 0.2 µg/mL
COc1ccc(C(=O)NCC(O)CN2CCOCC2)cc1[N+](=O)[O-] (centres undefined)	38.9 µg/mL (≈ 115 µM)
O=C1OCC2=C1C(c1ccccc1)CC(=O)N2c1ccc(F)cc1 (centres undefined)	> 48.5 µg/mL
Cc1nn(CC(=O)N(CC(C)C)C2CCS(=O)(=O)C2)c(C)c1[N+](=O)[O-] (centres undefined)	> 55.9 µg/mL
CCCCNC(=O)C1CCN(c2nc(C)cc(C)n2)CC1	8.9 µg/mL (≈ 30.6 µM)
Cc1ccc2nc(SCC3CCCCO3)[nH]c2c1 (centres undefined)	37.4 µg/mL (≈ 143 µM)
O=C(CN1CCCCC1)Nc1nc(-c2ccc(Cl)cc2)cs1	< 0.2 µg/mL
CC(=O)c1ccc(NC(=O)N2CCN(c3ccc(C)cc3)C(C)C2)cc1 (centres undefined)	39.4 µg/mL (≈ 112 µM)
O=C(Nc1c[nH]c(=O)[nH]c1=O)c1cccc(F)c1	12.2 µg/mL (≈ 49 µM)
O=C(CCC(=O)N1CCN(c2ccccn2)CC1)c1cccs1	> 49.4 µg/mL
Cn1cc(C(=O)C(=O)N2CCOCC2)c2ccccc21	> 40.8 µg/mL
CC1(C)CC(NC(=O)c2c(N)no[n+]2[O-])CC(C)(C)N1	> 42.5 µg/mL
O=C(CN1C(=O)NC2(CCCC2)C1=O)NC(c1ccccc1)c1ccccc1	14.5 µg/mL (≈ 38.4 µM)
Cc1ccc(NC(=S)Nc2ccc3[nH]c(=O)[nH]c3c2)cc1C	17.9 µg/mL (≈ 57.3 µM)

SMILES	solubility kinetic
COc1cc(CC(=O)NCCCc2ccccc2)cc(OC)c1OC	> 51.5 µg/mL
O=C(CCl)Nc1cccc(Oc2cnccn2)c1	39.4 µg/mL (≈ 149 µM)
COc1cc(NC(=O)Cc2ccccc2)ccc1NC(=O)c1ccccc1	< 0.4 µg/mL
Cc1cc(=O)c2c([nH]1)c(C)cc1[nH]c(C)c(C)c12	> 36 µg/mL
OC(COc1ccccc1)CN1CCCCCC1 (centres undefined)	> 37.4 µg/mL
O=C(CN1CCCCCC1)Nc1ccccc1Cl	24.9 µg/mL (≈ 93.3 µM)
O=C(CSc1nc2ccccc2s1)c1ccc(O)cc1O	3.3 µg/mL (≈ 10.4 µM)
N#Cc1cccc(CN2C=NS(=O)(=O)c3ccccc32)c1	42.2 µg/mL (≈ 142 µM)
COc1cccc(CN2CCN(c3ncccn3)CC2)c1OC	35.7 µg/mL (≈ 114 µM)
COc1cc2c(cc1OC)C(c1ccccc1F)NCC2 (centres undefined)	> 43.1 µg/mL
O=C(NC1CSCC1OC(=O)c1ccccc1)c1ccccc1 (centres undefined)	26.1 µg/mL (≈ 79.7 µM)
O=C(NCCCN1CCOCC1)C1Cc2c(ccc3ccccc23)O1 (centres undefined)	> 51.1 µg/mL
COc1ccc2c(c1)-c1nc(/N=C/c3ccccc3O)sc1CC2	44.5 µg/mL (≈ 132 µM)
O=C(NC(=S)Nc1cccc2ncccc12)c1ccco1	13.3 µg/mL (≈ 44.7 µM)
Cc1ccc2oc(C(=O)NCc3ncc(C)[nH]3)c(C)c2c1	38.7 µg/mL (≈ 137 µM)
CC(=O)Nc1cccc(Oc2nc(C(F)(F)F)nc3ccccc23)c1	14 µg/mL (≈ 40.3 µM)
Cc1noc(NS(=O)(=O)c2ccc(NC(=O)c3ccc(F)cc3)cc2)c1C	> 58.4 µg/mL
CCOc1ccccc1NC(=O)C(=O)NCCC1=CCCCC1	< 0.3 µg/mL
COC(=O)c1ccc(C(=O)OC)c(NC(=S)N2CCCC(CO)C2)c1 (centres undefined)	50.9 µg/mL (≈ 139 µM)
Cc1ccc(NC(=O)Nc2ccc3c(c2)OCO3)cc1F	< 0.3 µg/mL
CSc1ncccc1C(=O)NCc1ccccc1Cl	38.1 µg/mL (≈ 130 µM)
O=C(NC1CCCCC1)c1cc(-c2ccc(F)cc2)on1	< 0.3 µg/mL
O=C(C(=O)N1CCN(c2ccc(F)cc2)CC1)c1c[nH]c2ccccc12	6.9 µg/mL (≈ 19.6 µM)
Cn1cccc1/C=C1/C(=O)NC(=O)N(C(C)(C)C)C1=O	37.1 µg/mL (≈ 135 µM)

SMILES	solubility kinetic
CCN1CCN(Cc2cccnc2)CC1	20.2 µg/mL (≈ 98.4 µM)
O=C(NCc1ccc(Cl)cc1)C1CCCO1 (centres undefined)	> 36 µg/mL
COc1ccc(CCNC(=O)c2c(C)nc3ccccn23)cc1OC	> 50.9 µg/mL
CC(=O)Nc1ccc2oc(-c3ccccc3)nc2c1	13.1 µg/mL (≈ 51.9 µM)
Cc1cccc(NC(=O)Cc2ccc(-c3ccccc3)cc2)n1	3.6 µg/mL (≈ 11.9 µM)
COc1cc(CC(=O)OCC(=O)c2ccc[nH]2)cc(OC)c1OC	> 50 µg/mL
Cn1cccc1C(=O)NCCc1ccccc1	> 34.2 µg/mL
O=C(NCc1cccnc1)Nc1ccc(Cl)c(Cl)c1	> 44.4 µg/mL
O=C(NCc1ccccn1)Nc1ccccc1C(F)(F)F	> 44.3 µg/mL
O=C(Nc1nc(-c2cccnc2)cs1)c1cccc([N+](=O)[O-])c1	0.9 µg/mL (≈ 2.76 µM)
COc1ccc(C(CNC(=O)c2cc(S(=O)(=O)NCc3ccco3)ccc2C)N(C)C)cc1 (centres undefined)	> 70.7 µg/mL
Cc1ccccc1NC(=O)Nc1ccc2c(c1)CCC2	0.5 µg/mL (≈ 1.88 µM)
CCOC(=O)C1=C(C)NC(=O)NC1c1ccc([N+](=O)[O-])o1 (centres undefined)	42.7 µg/mL (≈ 145 µM)
NC(=O)COc1ccc(NC(=O)CC23CC4CC(CC(C4)C2)C3)cc1	8.9 µg/mL (≈ 26 µM)
Cn1cc(C=O)c2cc(F)ccc21	> 26.6 µg/mL
COc1ccc(C)cc1NC(=O)CSc1cccc[n+]1[O-]	> 45.7 µg/mL
COc1ccc(C)cc1COC(=O)c1[nH]c(C)c(C(C)=O)c1C	> 47.3 µg/mL
COc1ccc(CNC(=O)COC(=O)C(CCSC)N2C(=O)c3ccccc3C2=O)cc1 (centres undefined)	> 68.5 µg/mL
COc1ccc(CC(=O)NC2CC(C)(C)NC(C)(C)C2)cc1OC.Cl	> 55.6 µg/mL
CC(=O)C1=C(C)OC(N)=C(C#N)C1c1cc([N+](=O)[O-])ccc1Cl (centres undefined)	41.9 µg/mL (≈ 126 µM)
COC(=O)Nc1nc(-c2cc(Cl)ccc2Cl)cs1	< 0.3 µg/mL
Cc1c(CC(=O)Nc2ccc(Cl)cc2)sc2ccc(Cl)cc12	< 0.8 µg/mL
O=C(O)/C=C/C(=O)Nc1ccc(OCc2ccccc2)cc1	> 44.6 µg/mL
